Assay results reported in ChEMBL document CHEMBL1201862, “PubChem BioAssay data set” (2004).
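Dose response: 5 concentrations. Exposure: 48 h. Format: 96-well plates. Endpoint: linear interpolation; highest concentration if not reached. GI50 marks 50% less growth.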 The source made the active and inactive calls. No stated cut-off is given here; in the data, active = GI50 up to about 1.1 µM and inactive = higher. Where a SMILES comes first, the peptide text is derived from it. [ ]: non-standard residue; d: D form. The star is where a group is joined. ξ: configuration not given here. ξD = NC(CC(=O)O)C(=O)O; Boc = CC(C)(C)OC(=O)*; Aib = CC(C)(N)C(=O)O; OBn = c1ccc(CO*)cc1

Assays:
Test in all cases: inhibition of tumour cell growth, NCI panel, 48 h
[1] = test system: PC-3
[2] = test system: 786-0
[3] = test system: UACC-62
[4] = test system: T47D
[5] = test system: LOX IMVI
[6] = test system: MDA-MB-435
[7] = test system: NCI-H460
[8] = test system: OVCAR-5
[9] = test system: M14
[10] = test system: MDA-N
[11] = test system: SR
[12] = test system: HOP-92
[13] = test system: TK-10
[14] = test system: EKVX
[15] = test system: HCT-116
[16] = test system: IGROV-1
[17] = test system: BT-549
[18] = test system: SF-295
[19] = test system: RXF 393
[20] = test system: K562

Row | Structure (SMILES) | GI50 [1] | GI50 [2] | GI50 [3] | GI50 [4] | GI50 [5] | GI50 [6] | GI50 [7] | GI50 [8] | GI50 [9] | GI50 [10] | GI50 [11] | GI50 [12] | GI50 [13] | GI50 [14] | GI50 [15] | GI50 [16] | GI50 [17] | GI50 [18] | GI50 [19] | GI50 [20]
1 | CC(C)(C)OC(=O)N1CCC(C(=O)O)CC1 | > 100 µM (inactive) | > 100 µM (inactive) | > 100 µM (inactive) | > 100 µM (inactive) | > 100 µM (inactive) | > 100 µM (inactive) | > 100 µM (inactive) | > 100 µM (inactive) | > 100 µM (inactive) | > 100 µM (inactive) | > 100 µM (inactive) | > 100 µM (inactive) | > 100 µM (inactive) | > 100 µM (inactive) | > 100 µM (inactive) | > 100 µM (inactive) | > 100 µM (inactive) | > 100 µM (inactive) |  | 
2 | CNc1ccc(Cl)cc1S(=O)(=O)c1ccccc1[N+](=O)[O-] | > 100 µM (inactive) | > 100 µM (inactive) | > 100 µM (inactive) | > 100 µM (inactive) | > 100 µM (inactive) |  | > 100 µM (inactive) | > 100 µM (inactive) | > 100 µM (inactive) | > 100 µM (inactive) | > 100 µM (inactive) |  | > 100 µM (inactive) | > 100 µM (inactive) | > 10 µM (inactive) | > 100 µM (inactive) | > 100 µM (inactive) | > 100 µM (inactive) | > 100 µM (inactive) | > 100 µM (inactive)
3 | Cc1ccc(C)n1-n1c(Cc2ccc(Cl)cc2)n[nH]c1=O | 39.2 µM (inactive) | > 100 µM (inactive) | > 100 µM (inactive) | 39.9 µM (inactive) | 59.4 µM (inactive) | > 100 µM (inactive) | > 100 µM (inactive) | > 100 µM (inactive) | > 100 µM (inactive) | > 100 µM (inactive) | 33.2 µM (inactive) |  | > 100 µM (inactive) | 69.5 µM (inactive) | 53.3 µM (inactive) | > 100 µM (inactive) | 71.1 µM (inactive) | 66.2 µM (inactive) | 59.3 µM (inactive) | 41.1 µM (inactive)
4 | COc1cc(C(=O)N(C(=O)N2CCCCC2)c2ccccc2)cc(OC)c1OC | > 100 µM (inactive) | > 100 µM (inactive) | > 100 µM (inactive) | > 100 µM (inactive) | > 100 µM (inactive) | > 100 µM (inactive) | > 100 µM (inactive) | > 100 µM (inactive) | > 100 µM (inactive) | > 100 µM (inactive) | > 100 µM (inactive) | > 100 µM (inactive) |  | > 100 µM (inactive) | > 100 µM (inactive) | > 100 µM (inactive) | > 100 µM (inactive) | > 100 µM (inactive) |  | > 100 µM (inactive)
5 | O=C(O)/C=C\C(=O)Nn1c(Cc2ccc(Cl)cc2)n[nH]c1=O | > 100 µM (inactive) | > 100 µM (inactive) | > 100 µM (inactive) | > 100 µM (inactive) |  | > 100 µM (inactive) | > 100 µM (inactive) | > 100 µM (inactive) | > 100 µM (inactive) | > 100 µM (inactive) | > 100 µM (inactive) |  | > 100 µM (inactive) | > 100 µM (inactive) | > 100 µM (inactive) | > 100 µM (inactive) | > 100 µM (inactive) | > 100 µM (inactive) | > 100 µM (inactive) | > 100 µM (inactive)
6 | c1ccc(N/N=N/c2ccc(-c3nc4ccccc4o3)cc2)nc1 | 30.1 µM (inactive) | 91.8 µM (inactive) | 40.8 µM (inactive) | 25.2 µM (inactive) | 37.2 µM (inactive) | 31 µM (inactive) | 30.5 µM (inactive) | > 100 µM (inactive) | 60.7 µM (inactive) | 68.7 µM (inactive) | 38.5 µM (inactive) | 54.6 µM (inactive) | 37.4 µM (inactive) | 29.9 µM (inactive) | 39.8 µM (inactive) | 28.6 µM (inactive) | 28.8 µM (inactive) |  |  | 42.9 µM (inactive)
7 | COC(=O)C(Cc1ccc(Oc2cc(CC(NC(=O)c3ccccc3)C(=O)OC)ccc2OC)cc1)NC(=O)c1ccccc1 (configuration not stated) | 22.7 µM (inactive) | 7.83 µM (inactive) | 17.9 µM (inactive) | 6.04 µM (inactive) | 8.26 µM (inactive) | 18.4 µM (inactive) | 22.8 µM (inactive) | > 100 µM (inactive) | 6.95 µM (inactive) | 14.2 µM (inactive) |  | 21.6 µM (inactive) | 7.53 µM (inactive) | 29.8 µM (inactive) | 30.3 µM (inactive) | 6.3 µM (inactive) | 26.7 µM (inactive) | > 77.6 µM (inactive) | 14.7 µM (inactive) | 2.01 µM (inactive)
8 | CCOC(=O)/C=C(/C(=O)OCC)n1c(=O)c(C)cn(C2CC(N=[N+]=[N-])C(CO)O2)c1=O (configuration not stated) | 13.5 µM (inactive) | 25.4 µM (inactive) | 85.9 µM (inactive) | 27.2 µM (inactive) | 27.5 µM (inactive) | 29.6 µM (inactive) | 47.4 µM (inactive) | > 100 µM (inactive) | 26.4 µM (inactive) | 43 µM (inactive) |  | 30.8 µM (inactive) | 37.2 µM (inactive) | 28.1 µM (inactive) | 37.2 µM (inactive) | 37.3 µM (inactive) | 48.6 µM (inactive) | 79.6 µM (inactive) | 24.2 µM (inactive) | 1.86 µM (inactive)
9 | COc1ccc(-n2cnc3c(NC(C)(C)C(=O)O)ncnc32)cc1 | > 100 µM (inactive) | > 100 µM (inactive) | > 100 µM (inactive) | > 100 µM (inactive) | > 100 µM (inactive) | > 100 µM (inactive) | > 100 µM (inactive) | > 100 µM (inactive) | > 100 µM (inactive) | > 100 µM (inactive) | > 100 µM (inactive) | > 100 µM (inactive) | > 100 µM (inactive) | 84.9 µM (inactive) | > 100 µM (inactive) | > 100 µM (inactive) | > 100 µM (inactive) | > 100 µM (inactive) |  | > 100 µM (inactive)
10 | Cc1ccc(C(=O)/C=C(O)/C(O)=C/C(=O)c2ccc(C)cc2C)c(C)c1 | 2.31 µM (inactive) | 2.03 µM (inactive) | 1.79 µM (inactive) | 2.05 µM (inactive) | 2.16 µM (inactive) | 2.01 µM (inactive) | 1.71 µM (inactive) | 2.06 µM (inactive) | 1.93 µM (inactive) |  | 2.33 µM (inactive) | 2.9 µM (inactive) | 1.8 µM (inactive) | 2.34 µM (inactive) | 2.32 µM (inactive) | 1.98 µM (inactive) | 1.64 µM (inactive) | 1.75 µM (inactive) | 2.02 µM (inactive) | 2.96 µM (inactive)
11 | CC(C)=C1CCC(CN2CCOCC2)C1=O (configuration not stated) | 17.5 µM (inactive) | 3.79 µM (inactive) | 17 µM (inactive) |  | 19.9 µM (inactive) | 15.3 µM (inactive) | 27.2 µM (inactive) | 18.2 µM (inactive) | 3.52 µM (inactive) | 19.1 µM (inactive) | 3.57 µM (inactive) | 3.95 µM (inactive) | 6.21 µM (inactive) | 17.7 µM (inactive) | 4.43 µM (inactive) | 20.3 µM (inactive) | 17.3 µM (inactive) | 98.4 µM (inactive) | 2.07 µM (inactive) | 1.72 µM (inactive)
12 | CCCC(=O)N/S(=N/S(=O)(=O)c1ccc(Cl)cc1)C(Cl)(Cl)Cl (configuration not stated) | > 100 µM (inactive) | > 100 µM (inactive) | > 100 µM (inactive) | > 100 µM (inactive) |  | > 100 µM (inactive) | > 100 µM (inactive) | > 100 µM (inactive) | > 100 µM (inactive) | > 100 µM (inactive) | > 100 µM (inactive) |  | > 100 µM (inactive) | > 100 µM (inactive) | > 100 µM (inactive) | > 100 µM (inactive) | > 100 µM (inactive) | > 100 µM (inactive) | > 100 µM (inactive) | > 100 µM (inactive)
13 | COC(=O)C1=COC2OC3C(C(C)O)C(=O)OC34C=CC1C24 (configuration not stated) | 85.5 µM (inactive) | 53.8 µM (inactive) | 29.3 µM (inactive) | 39.4 µM (inactive) | 47.3 µM (inactive) | 31.6 µM (inactive) | 49.2 µM (inactive) | 51.9 µM (inactive) | 55.6 µM (inactive) | 29.6 µM (inactive) |  | 55.7 µM (inactive) | 61.2 µM (inactive) | 81.7 µM (inactive) | 47.5 µM (inactive) | 71.6 µM (inactive) | 40.4 µM (inactive) | 56.6 µM (inactive) |  | 32.2 µM (inactive)
14 | COc1ccc(C(=O)c2sc(Nc3ccccc3)nc2N)cc1 | > 72.8 µM (inactive) | 13.1 µM (inactive) | > 100 µM (inactive) | > 100 µM (inactive) | > 100 µM (inactive) | 1.36 µM (inactive) | > 100 µM (inactive) | > 100 µM (inactive) | > 100 µM (inactive) |  | 0.778 µM (active) | 50.1 µM (inactive) | > 55.7 µM (inactive) | 60.5 µM (inactive) |  | 14.3 µM (inactive) | > 100 µM (inactive) | 32.4 µM (inactive) | 13.4 µM (inactive) | 2.25 µM (inactive)
15 | CC(C)(C)OC(=O)NC(CC(=O)OCc1ccccc1)C(=O)NC(C)(C)C(N)=O (configuration not stated) (Boc-[ξD](OBn)-[Aib]-NH2) | > 100 µM (inactive) | > 100 µM (inactive) | 0.0204 µM (active) | > 100 µM (inactive) | > 100 µM (inactive) | > 100 µM (inactive) | > 100 µM (inactive) | > 100 µM (inactive) | > 100 µM (inactive) | > 100 µM (inactive) |  | > 100 µM (inactive) | > 100 µM (inactive) | > 100 µM (inactive) | > 100 µM (inactive) | > 100 µM (inactive) | > 100 µM (inactive) | > 100 µM (inactive) | > 100 µM (inactive) | > 100 µM (inactive)
